From US4122034A, “Antimicrobial compositions” (Schering Corporation, priority 1975, dated 1978)

Columns and labels:
Enterococcus = test: In vitro antibacterial activity, dilution in Mueller Hinton Agar (Table I); format: cell-based
Experimental: (§1) All the tests were carried out and (when necessary) scored under standard conditions. "MIC" means "minimum inhibitory concentration."
(§2) In vitro Antibacterial Activity of 2-aminoalkyl-3-phenyl-
(§3) indoles of the formula I. Dilution in Mueller Hinton Agar pH 7.4

Proteus mirabilis = test: as above; format: cell-based; conditions: Mueller Hinton Agar pH 7.4
Experimental: as §1, §2, §3

Proteus morganii = test: as above; format: cell-based; conditions: Morganella morganii; strain Valz; Mueller Hinton Agar pH 7.4
Experimental: as §1, §2, §3

Proteus vulgaris = test: as above; format: cell-based; conditions: strain Napol, Mueller Hinton Agar pH 7.4
Experimental: as §1, §2, §3

Salmonella = test: as above; format: cell-based
Experimental: as §1, §2, §3

Staphylococcus aureus = test: as above; format: cell-based; conditions: Mueller Hinton Agar pH 7.4
Experimental: as §1, §2, §3

Streptococcus pyogenes = test: as above; format: cell-based
Experimental: as §1, §2, §3

Bacteroides corrodens = test: In vitro activity against anaerobes in fluid Thioglycollate medium (Table II); format: cell-based; conditions: Eikenella corrodens
Experimental: as §1
(§4) In vitro activity of 2-aminoalkyl-3-phenylindoles of the formula I
(§5) against anaerobes in fluid Thioglycollate medium

Bacteroides fragilis = test: as above; format: cell-based
Experimental: as §1, §4, §5

[1] = system: Bacteroides melaninogenicus; test: as above; format: cell-based
Experimental: as §1, §4, §5

Clostridium histolyticum = test: as above; format: cell-based; conditions: Hathewaya histolytica
Experimental: as §1, §4, §5

Clostridium novyi = test: as above; format: cell-based
Experimental: as §1, §4, §5

Clostridium septicum = test: as above; format: cell-based
Experimental: as §1, §4, §5

Eubacterium lentum = test: as above; format: cell-based; conditions: Eggerthella lenta
Experimental: as §1, §4, §5

Peptostreptococcus = test: as above; format: cell-based
Experimental: as §1, §4, §5

Aspergillus niger 6275 = test: In vitro antifungal activity, dilutions in Sabouraud's Dextrose Broth (Table IV); format: cell-based; conditions: after 96 hours
Experimental: as §1
(§6) In vitro Antifungal Activity of 2-amioalkyl-3-phenylindoles
(§7) of the formula I against Dermetophytes and Aspergillus.
(§8) Dilutions in Sabouraud's Dextrose Broth.

Aspergillus sp. No. 3 = test: as above; format: cell-based; conditions: after 96 hours
Experimental: as §1, §6, §7, §8

Epidermophyton floccosum = test: as above; format: cell-based; conditions: after 96 hours
Experimental: as §1, §6, §7, §8

Microsporum distortum = test: as above; format: cell-based; conditions: after 96 hours
Experimental: as §1, §6, §7, §8

Microsporum nanum = test: as above; format: cell-based; conditions: Nannizzia nana; after 96 hours
Experimental: as §1, §6, §7, §8

Trichophyton ascoides = test: as above; format: cell-based; conditions: after 96 hours
Experimental: as §1, §6, §7, §8

Trichophyton discoides = test: as above; format: cell-based; conditions: after 96 hours
Experimental: as §1, §6, §7, §8

Trichophyton ferrugineum = test: as above; format: cell-based; conditions: Microsporum ferrugineum; after 96 hours
Experimental: as §1, §6, §7, §8

Trichophyton gallinae = test: as above; format: cell-based; conditions: after 96 hours
Experimental: as §1, §6, §7, §8

Trichophyton megninii = test: as above; format: cell-based; conditions: Trichophyton rubrum; after 96 hours
Experimental: as §1, §6, §7, §8

[2] = system: Trichophyton mentagrophytes; test: as above; format: cell-based; conditions: 96 h
Experimental: as §1, §6, §7, §8

Trichophyton rubrum = test: as above; format: cell-based; conditions: 96 h
Experimental: as §1, §6, §7, §8

[3] = system: Trichophyton schoenleinii; test: as above; format: cell-based; conditions: 96 h
Experimental: as §1, §6, §7, §8

Trichophyton soudenense = test: as above; format: cell-based; conditions: after 96 hours
Experimental: as §1, §6, §7, §8

Trichophyton tonsurans = test: as above; format: cell-based; conditions: after 96 hours
Experimental: as §1, §6, §7, §8

Tricoderm sp. = test: as above; format: cell-based; conditions: after 96 hours
Experimental: as §1, §6, §7, §8

[4] = Acute toxicity in mice (Table V); conditions: mouse, in vivo
Experimental: as §1
Acute Toxicity of 2-aminoalkyl-3-phenylindoles of the formula I

T. mentagrophytes = test: Effect against topical T. mentagrophytes infections in guinea pigs (Table VI); format: in vivo; parameters: Average Sum of lesion scores, Days 1-5 / Average Sum of lesion scores, Days 1-10: scale not given here; conditions: for Average Sum of lesion scores, Days 1-5: untreated controls 14.8; for Average Sum of lesion scores, Days 1-10: untreated controls 38.2
Experimental: as §1
Effect of some 2-aminoalkyl-3-phenylindoles of the formula II
against topical T. mentagrophytes infections in guinea pigs.

Trychomonas vaginalis = test: In vitro Anti-Trichomonal activity (Table VII); format: cell-based; conditions: for IC50: 50% suppression, read-out: Minimal Level to Produce 50% Suppression; for IC90: 90% suppression, read-out: Minimal Level to Produce 90% Suppression
Experimental: as §1
In vitro Anti-Trichomonal Activity of some 2-aminoalkyl-3-
phenyl-indenes of formula II.

[5] = pH 7.4, strain 373, Mueller Hinton Agar pH 7.4
[6] = pH 7.4, strain 0928/72, Mueller Hinton Agar pH 7.4
[7] = TYPHI, pH 7.4, B typhi, Mueller Hinton Agar pH 7.4
[8] = pH 7.4, C1 Oao, Mueller Hinton Agar pH 7.4
[9] = pH 7.4, C2 Cuban, Mueller Hinton Agar pH 7.4
[10] = pH 7.4, C2 Napc, Mueller Hinton Agar pH 7.4
[11] = pH 7.4, Salmonella ent. 1, Mueller Hinton Agar pH 7.4
[12] = pH 7.4, strain 27, Mueller Hinton Agar pH 7.4
[13] = pH 7.4, strain C, Mueller Hinton Agar pH 7.4
[14] = pH 7.4, strain Cruz, Mueller Hinton Agar pH 7.4
[15] = strain Haggerty, after 96 hours
[16] = strain not given, after 96 hours

NCc1[nH]c2ccc(Cl)cc2c1-c1c(F)cccc1F [B, 2-aminomethyl-5-chloro-3-(2,6-difluorophenyl)indole]
~1000 mg/kg: LD50 ([4]; Oral)
14.2 days: Average No. of Days to become negative, Lesion (T. mentagrophytes; concentration 1%)
37.5 µg/mL: MIC (Proteus mirabilis; pH 7.4, strain Peras) | MIC (Aspergillus niger 6275) | MIC (Aspergillus sp. No. 3) | MIC (Trichophyton ferrugineum)
32 µg/mL: IC50 (Trychomonas vaginalis)
225 mg/kg: LD50 ([4]; ip, I.P.)
9.2: Average Sum of lesion scores, Days 1-5 (T. mentagrophytes; concentration 4%)
17.5 µg/mL: MIC (Enterococcus; [6]) | MIC (Proteus mirabilis; pH 7.4, strain Hard) | MIC (Proteus morganii) | MIC (Proteus vulgaris) | MIC (Streptococcus pyogenes; [13]) | MIC ([1]; 72 hrs) | MIC (Eubacterium lentum; 48 hrs) | MIC (Eubacterium lentum; 72 hrs) | MIC (Epidermophyton floccosum) | MIC (Microsporum distortum) | MIC (Microsporum nanum) | MIC (Trichophyton ascoides) | MIC (Trichophyton discoides) | MIC ([2]; strain H377, after 96 hours) | MIC (Trichophyton rubrum; strain 3, after 96 hours) | MIC (Trichophyton rubrum; strain 360, after 96 hours) | MIC (Trichophyton rubrum; strain Blehl, after 96 hours) | MIC (Trichophyton rubrum; [15]) | MIC [3, 16] | MIC (Trichophyton soudenense)
11.6: Average Sum of lesion scores, Days 1-5 (T. mentagrophytes; concentration 1%)
7.5 µg/mL: MIC (Enterococcus; [5]) | MIC (Salmonella; [7]) | MIC (Salmonella; [8]) | MIC (Salmonella; [9]) | MIC (Salmonella; [10]) | MIC (Salmonella; [11]) | MIC (Staphylococcus aureus; 209P, pH 7.4, strain 209P) | MIC (Staphylococcus aureus; pH 7.4, strain 59N) | MIC (Staphylococcus aureus; pH 7.4, strain Gray) | MIC (Staphylococcus aureus; pH 7.4, strain Wood) | MIC (Staphylococcus aureus; pH 7.4, strain Zeigler) | MIC (Streptococcus pyogenes; [12]) | MIC (Bacteroides corrodens; 48 hrs) | MIC (Bacteroides corrodens; 72 hrs) | MIC ([1]; 48 hrs) | MIC (Clostridium histolyticum; 48 hrs) | MIC (Clostridium histolyticum; 72 hrs) | MIC (Clostridium novyi; 48 hrs) | MIC (Clostridium novyi; 72 hrs) | MIC (Trichophyton gallinae) | MIC (Trichophyton megninii) | MIC ([2]; strain A, after 96 hours) | MIC ([2]; strain B, after 96 hours) | MIC ([2]; strain C, after 96 hours) | MIC ([2]; strain Young, after 96 hours) | MIC ([3]; strain 2, after 96 hours) | MIC (Tricoderm sp.)
10.0: Average Sum of lesion scores, Days 1-10 (T. mentagrophytes; concentration 4%)
3 µg/mL: MIC (Streptococcus pyogenes; [14]) | MIC (Bacteroides fragilis; 48 hrs) | MIC (Bacteroides fragilis; 72 hrs) | MIC (Clostridium septicum; 48 hrs) | MIC (Clostridium septicum; 72 hrs) | MIC (Peptostreptococcus; 48 hrs) | MIC (Peptostreptococcus; 72 hrs)
5.0 days: Average No. of Days to become negative, Cultures (T. mentagrophytes; concentration 4%)
900 mg/kg: LD50 ([4]; sc, S.C.)
75 µg/mL: IC90 (Trychomonas vaginalis)
20.0: Average Sum of lesion scores, Days 1-10 (T. mentagrophytes; concentration 1%)
200 µg/mL: MIC (Trichophyton tonsurans)
7.2 days: Average No. of Days to become negative, Lesion (T. mentagrophytes; concentration 4%)
9.6 days: Average No. of Days to become negative, Cultures (T. mentagrophytes; concentration 1%)

NCc1[nH]c2ccc(Cl)cc2c1-c1ccccc1 [C, 2-(1-aminomethyl)-5-chloro-3-phenylindole]
11.8: Average Sum of lesion scores, Days 1-10 (T. mentagrophytes; concentration 4%)
38 µg/mL: IC90 (Trychomonas vaginalis)
600 mg/kg: LD50 ([4]; sc, S.C.)
3 µg/mL: MIC (Salmonella; [7]) | MIC (Salmonella; [8]) | MIC (Salmonella; [9]) | MIC (Salmonella; [10]) | MIC (Staphylococcus aureus; pH 7.4, strain Zeigler) | MIC (Streptococcus pyogenes; [14]) | MIC (Bacteroides corrodens; 48 hrs) | MIC (Bacteroides corrodens; 72 hrs) | MIC (Bacteroides fragilis; 48 hrs) | MIC (Bacteroides fragilis; 72 hrs) | MIC (Clostridium histolyticum; 48 hrs) | MIC (Clostridium histolyticum; 72 hrs) | MIC (Clostridium novyi; 48 hrs) | MIC (Clostridium novyi; 72 hrs) | MIC (Clostridium septicum; 48 hrs) | MIC (Clostridium septicum; 72 hrs) | MIC (Peptostreptococcus; 48 hrs) | MIC (Peptostreptococcus; 72 hrs) | MIC (Microsporum nanum) | MIC ([2]; strain C, after 96 hours) | MIC ([3]; strain 2, after 96 hours)
10.0: Average Sum of lesion scores, Days 1-5 (T. mentagrophytes; concentration 4%)
37.5 µg/mL: MIC (Trichophyton gallinae) | MIC (Trichophyton rubrum; strain Blehl, after 96 hours)
5.6 days: Average No. of Days to become negative, Cultures (T. mentagrophytes; concentration 4%)
25.0: Average Sum of lesion scores, Days 1-10 (T. mentagrophytes; concentration 1%)
30 µg/mL: IC50 (Trychomonas vaginalis)
13.0: Average Sum of lesion scores, Days 1-5 (T. mentagrophytes; concentration 1%)
14.4 days: Average No. of Days to become negative, Lesion (T. mentagrophytes; concentration 1%)
7.4 days: Average No. of Days to become negative, Lesion (T. mentagrophytes; concentration 4%)
17.5 µg/mL: MIC (Aspergillus niger 6275) | MIC (Aspergillus sp. No. 3) | MIC (Epidermophyton floccosum) | MIC (Trichophyton discoides) | MIC (Trichophyton ferrugineum) | MIC ([2]; strain H377, after 96 hours) | MIC (Trichophyton rubrum; strain 3, after 96 hours) | MIC [3, 16] | MIC (Trichophyton soudenense)
7.5 µg/mL: MIC (Enterococcus; [5]) | MIC (Enterococcus; [6]) | MIC (Proteus mirabilis; pH 7.4, strain Hard) | MIC (Proteus mirabilis; pH 7.4, strain Peras) | MIC (Proteus morganii) | MIC (Proteus vulgaris) | MIC (Salmonella; [11]) | MIC (Staphylococcus aureus; 209P, pH 7.4, strain 209P) | MIC (Staphylococcus aureus; pH 7.4, strain 59N) | MIC (Staphylococcus aureus; pH 7.4, strain Gray) | MIC (Staphylococcus aureus; pH 7.4, strain Wood) | MIC (Streptococcus pyogenes; [12]) | MIC (Streptococcus pyogenes; [13]) | MIC ([1]; 48 hrs) | MIC ([1]; 72 hrs) | MIC (Eubacterium lentum; 48 hrs) | MIC (Eubacterium lentum; 72 hrs) | MIC (Microsporum distortum) | MIC (Trichophyton ascoides) | MIC (Trichophyton megninii) | MIC ([2]; strain A, after 96 hours) | MIC ([2]; strain B, after 96 hours) | MIC ([2]; strain Young, after 96 hours) | MIC (Trichophyton rubrum; strain 360, after 96 hours) | MIC (Trichophyton rubrum; [15]) | MIC (Trichophyton tonsurans) | MIC (Tricoderm sp.)
100 mg/kg: LD50 ([4]; ip, I.P.)
12.4 days: Average No. of Days to become negative, Cultures (T. mentagrophytes; concentration 1%)
> 1000 mg/kg: LD50 ([4]; Oral)
